Legend:
Assay in all cases: cells
Format in all cases: functional, cell-based
Details in all cases: Homo sapiens
COLO-800 = system: COLO-800;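 further: growth inhibition of COLO-800 cells, read out with a cell viability assay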
Description: SANGER: Inhibition of human COLO-800 cell growth in a cell viability assay.

COR-L23 = system: COR-L23;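 further: cell viability assay measuring how strongly compounds suppress growth of COR-L23 cells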
Description: SANGER: Inhibition of human COR-L23 cell growth in a cell viability assay.

CP66-MEL = system: CP66-MEL;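 further: growth inhibition of CP66-MEL cells determined in a cell viability assay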
Description: SANGER: Inhibition of human CP66-MEL cell growth in a cell viability assay.

D-263MG = system: D-263MG
Description: SANGER: Inhibition of human D-263MG cell growth in a cell viability assay.

DU-4475 = system: DU-4475
Description: SANGER: Inhibition of human DU-4475 cell growth in a cell viability assay.

EM-2 = system: EM-2;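 further: growth inhibition of EM-2 cells, read out with a cell viability assay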
Description: SANGER: Inhibition of human EM-2 cell growth in a cell viability assay.

ES4 = system: ES4;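 further: growth inhibition of human ES4 cells, read out by a cell viability assay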
Description: SANGER: Inhibition of human ES4 cell growth in a cell viability assay.

ES7 = system: ES7;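 further: growth inhibition of cultured human ES7 cells, read out as cell viability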
Description: SANGER: Inhibition of human ES7 cell growth in a cell viability assay.

EW-11 = system: EW-11;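 further: growth inhibition of human EW-11 cells, measured with a cell viability assay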
Description: SANGER: Inhibition of human EW-11 cell growth in a cell viability assay.

EW-18 = system: EW-18;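 further: growth inhibition of EW-18 cells, read out by a cell viability assay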
Description: SANGER: Inhibition of human EW-18 cell growth in a cell viability assay.

GI-ME-N = system: GI-ME-N;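 further: growth inhibition of human GI-ME-N cells, read out with a cell viability assay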
Description: SANGER: Inhibition of human GI-ME-N cell growth in a cell viability assay.

GOTO = system: GOTO;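 further: growth inhibition of GOTO cells, read out by a cell viability assay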
Description: SANGER: Inhibition of human GOTO cell growth in a cell viability assay.

GT3TKB = system: GT3TKB;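 further: growth inhibition of the cell line, read out with a cell viability assay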
Description: SANGER: Inhibition of human GT3TKB cell growth in a cell viability assay.

HL-60 = system: HL-60;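 further: growth inhibition of human HL-60 cells, read out with a cell viability assay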
Description: SANGER: Inhibition of human HL-60 cell growth in a cell viability assay.

HT = system: HT
Description: SANGER: Inhibition of human HT cell growth in a cell viability assay.

IST-MEL1 = system: IST-MEL1;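 further: growth inhibition of the cell line, read out with a cell viability assay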
Description: SANGER: Inhibition of human IST-MEL1 cell growth in a cell viability assay.

IST-MES1 = system: IST-MES1;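 further: growth inhibition of IST-MES1 cells, measured with a cell viability assay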
Description: SANGER: Inhibition of human IST-MES1 cell growth in a cell viability assay.

K562 = system: K562
Description: SANGER: Inhibition of human K-562 cell growth in a cell viability assay.

KE-37 = system: KE-37;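 further: growth inhibition of KE-37 cells, read out with a cell viability assay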
Description: SANGER: Inhibition of human KE-37 cell growth in a cell viability assay.

KM-H2 = system: KM-H2;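 further: growth inhibition of KM-H2 cells, read out by a cell viability assay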
Description: SANGER: Inhibition of human KM-H2 cell growth in a cell viability assay.

KNS-42 = system: KNS-42;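 further: growth inhibition of KNS-42 cells, read out with a cell viability assay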
Description: SANGER: Inhibition of human KNS-42 cell growth in a cell viability assay.

KNS-81-FD = system: KNS-81-FD;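 further: growth inhibition of KNS-81-FD cells, read out with a cell viability assay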
Description: SANGER: Inhibition of human KNS-81-FD cell growth in a cell viability assay.

KYSE-410 = system: KYSE-410;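 further: growth inhibition of KYSE-410 cells, measured through a cell viability readout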
Description: SANGER: Inhibition of human KYSE-410 cell growth in a cell viability assay.

L-363 = system: L-363
Description: SANGER: Inhibition of human L-363 cell growth in a cell viability assay.

LB2241-RCC = system: LB2241-RCC;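 further: cell viability assay measuring how strongly the cultured human renal carcinoma line is prevented from growing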
Description: SANGER: Inhibition of human LB2241-RCC cell growth in a cell viability assay.

LB373-MEL-D = system: LB373-MEL-D;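 further: growth inhibition of the cell line, read out in a cell viability assay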
Description: SANGER: Inhibition of human LB373-MEL-D cell growth in a cell viability assay.

LS-123 = system: LS-123
Description: SANGER: Inhibition of human LS-123 cell growth in a cell viability assay.

MEG-01 = system: MEG-01;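 further: growth inhibition of MEG-01 cells, read out by a cell viability assay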
Description: SANGER: Inhibition of human MEG-01 cell growth in a cell viability assay.

ML-2 = system: ML-2;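 further: growth inhibition of ML-2 cells, measured with a cell viability readout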
Description: SANGER: Inhibition of human ML-2 cell growth in a cell viability assay.

MMAC-SF = system: MMAC-SF;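 further: growth inhibition of human MMAC-SF cells, read out with a cell viability assay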
Description: SANGER: Inhibition of human MMAC-SF cell growth in a cell viability assay.

MN-60 = system: MN-60;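 further: growth inhibition of the MN-60 cell line, determined with a cell viability assay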
Description: SANGER: Inhibition of human MN-60 cell growth in a cell viability assay.

NB10 = system: NB10;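 further: growth inhibition of NB10 cells, read out by a cell viability assay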
Description: SANGER: Inhibition of human NB10 cell growth in a cell viability assay.

NB5 = system: NB5;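 further: growth inhibition of NB5 cells, read out as cell viability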
Description: SANGER: Inhibition of human NB5 cell growth in a cell viability assay.

NCI-H1299 = system: NCI-H1299;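 further: growth inhibition of human NCI-H1299 cells, read out by a cell viability assay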
Description: SANGER: Inhibition of human NCI-H1299 cell growth in a cell viability assay.

NCI-H1650 = system: NCI-H1650;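 further: growth inhibition of human NCI-H1650 cells measured by a cell viability assay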
Description: SANGER: Inhibition of human NCI-H1650 cell growth in a cell viability assay.

NCI-H2170 = system: NCI-H2170;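 further: cell viability assay measuring growth inhibition of human NCI-H2170 cancer cells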
Description: SANGER: Inhibition of human NCI-H2170 cell growth in a cell viability assay.

NCI-H446 = system: NCI-H446;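 further: growth inhibition of NCI-H446 cells determined by a cell viability assay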
Description: SANGER: Inhibition of human NCI-H446 cell growth in a cell viability assay.

SNU-5 = system: SNU-5;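 further: cell viability readout used to measure growth inhibition in human NCI-SNU-5 cells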
Description: SANGER: Inhibition of human NCI-SNU-5 cell growth in a cell viability assay.

NKM-1 = system: NKM-1;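 further: growth inhibition of NKM-1 cells, read out with a cell viability assay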
Description: SANGER: Inhibition of human NKM-1 cell growth in a cell viability assay.

NTERA-2-cl-D1 = system: NTERA-2-cl-D1;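 further: inhibition of cell growth, measured with a cell viability assay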
Description: SANGER: Inhibition of human NTERA-S-cl-D1 cell growth in a cell viability assay.

OVCAR-5 = system: OVCAR-5;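 further: growth inhibition of human OVCAR-5 cells, read out with a cell viability assay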
Description: SANGER: Inhibition of human OVCAR-5 cell growth in a cell viability assay.

P12-Ichikawa = system: P12-Ichikawa
PSN1 = system: PSN1;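 further: suppression of growth of human PSN1 cells, read out by a cell viability assay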
Description: SANGER: Inhibition of human PSN1 cell growth in a cell viability assay.

RMG-I = system: RMG-I;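 further: growth inhibition of human RMG-I cells, read out with a cell viability assay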
Description: SANGER: Inhibition of human RMG-I cell growth in a cell viability assay.

RXF 393 = system: RXF 393;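 further: growth inhibition of human RXF 393 cells, read out with a cell viability assay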
Description: SANGER: Inhibition of human RXF393 cell growth in a cell viability assay.

SF-268 = system: SF-268;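 further: growth inhibition of SF-268 cells determined with a cell viability assay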
Description: SANGER: Inhibition of human SF268 cell growth in a cell viability assay.

SF-539 = system: SF-539;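 further: Read-out is a cell viability assay, with IC50 reflecting inhibition of cell growth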
Description: SANGER: Inhibition of human SF539 cell growth in a cell viability assay.

SH-4 = system: SH-4;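 further: growth inhibition of SH-4 cells, read out with a cell viability assay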
Description: SANGER: Inhibition of human SH-4 cell growth in a cell viability assay.

SJSA-1 = system: SJSA-1;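 further: growth inhibition of human SJSA-1 cells, read out through a cell viability measurement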
Description: SANGER: Inhibition of human SJSA-1 cell growth in a cell viability assay.

SK-MEL-2 = system: SK-MEL-2;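 further: growth inhibition of human SK-MEL-2 cells measured with a cell viability assay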
Description: SANGER: Inhibition of human SK-MEL-2 cell growth in a cell viability assay.

SK-OV-3 = system: SK-OV-3;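 further: growth inhibition of SK-OV-3 human cells, read out with a cell viability assay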
Description: SANGER: Inhibition of human SK-OV-3 cell growth in a cell viability assay.

A101D = system: A101D;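 further: growth inhibition of the cell line, measured with a viability assay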
Description: SANGER: Inhibition of human A101D cell growth in a cell viability assay.

A2058 = system: A2058;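 further: reduction of A2058 cell growth, read out with a viability assay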
Description: SANGER: Inhibition of human A2058 cell growth in a cell viability assay.

A2780 = system: A2780;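 further: growth inhibition of A2780 cells, read out with a cell viability assay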
Description: SANGER: Inhibition of human A2780 cell growth in a cell viability assay.

ALL-PO = system: ALL-PO
Description: SANGER: Inhibition of human ALL-PO cell growth in a cell viability assay.

AM-38 = system: AM-38
Description: SANGER: Inhibition of human AM-38 cell growth in a cell viability assay.

BE-13 = system: BE-13
Description: SANGER: Inhibition of human BE-13 cell growth in a cell viability assay.

BT-474 = system: BT-474
Description: SANGER: Inhibition of human BT-474 cell growth in a cell viability assay.

Becker = system: Becker
Description: SANGER: Inhibition of human Becker cell growth in a cell viability assay.

TE-10 = system: TE-10
Description: SANGER: Inhibition of human TE-10 cell growth in a cell viability assay.

UACC-257 = system: UACC-257
Description: SANGER: Inhibition of human UACC-257 cell growth in a cell viability assay.

VA-ES-BJ = system: VA-ES-BJ
Description: SANGER: Inhibition of human VA-ES-BJ cell growth in a cell viability assay.

no-11 = system: no-11
Description: SANGER: Inhibition of human no-11 cell growth in a cell viability assay.

COLO-320-HSR = system: COLO-320-HSR
Description: SANGER: Inhibition of human COLO-320-HSR cell growth in a cell viability assay.

CC[C@]1(O)C[C@@H]2CN(CCc3c([nH]c4ccccc34)[C@@](C(=O)OC)(c3cc4c(cc3OC)N(C)[C@H]3[C@@](O)(C(=O)OC)[C@H](OC(C)=O)[C@]5(CC)C=CCN6CC[C@]43[C@@H]65)C2)C1 [VINBLASTINE]
IC50 (COLO-800): 0.00334 µM
IC50 (COR-L23): 0.00362 µM
IC50 (CP66-MEL): 0.0486 µM
IC50 (D-263MG): 0.00928 µM
IC50 (DU-4475): > 0.1 µM
IC50 (EM-2): 0.00532 µM
IC50 (ES4): 0.0138 µM
IC50 (ES7): 0.00575 µM
IC50 (EW-11): 0.00715 µM
IC50 (EW-18): > 0.1 µM
IC50 (GI-ME-N): 0.00608 µM
IC50 (GOTO): 0.00821 µM
IC50 (GT3TKB): 0.00192 µM
IC50 (HL-60): 0.00437 µM
IC50 (HT): 0.0156 µM
IC50 (IST-MEL1): 0.00453 µM
IC50 (IST-MES1): 0.0677 µM
IC50 (K562): > 0.1 µM
IC50 (KE-37): 0.00399 µM
IC50 (KM-H2): 0.00534 µM
IC50 (KNS-42): 0.0187 µM
IC50 (KNS-81-FD): 0.0202 µM
IC50 (KYSE-410): 0.0093 µM
IC50 (L-363): 0.006 µM
IC50 (LB2241-RCC): 0.0101 µM
IC50 (LB373-MEL-D): 0.0641 µM
IC50 (LS-123): 0.0533 µM
IC50 (MEG-01): 0.0147 µM
IC50 (ML-2): 0.00865 µM
IC50 (MMAC-SF): 0.0151 µM
IC50 (MN-60): 0.0294 µM
IC50 (NB10): 0.00732 µM
IC50 (NB5): 0.0157 µM
IC50 (NCI-H1299): 0.0164 µM
IC50 (NCI-H1650): > 0.1 µM
IC50 (NCI-H2170): 0.0334 µM
IC50 (NCI-H446): 0.00212 µM
IC50 (SNU-5): > 0.1 µM
IC50 (NKM-1): 0.00127 µM
IC50 (NTERA-2-cl-D1): 0.00589 µM
IC50 (OVCAR-5): 0.0136 µM
IC50 (P12-Ichikawa): 0.0017 µM
IC50 (PSN1): 0.00125 µM
IC50 (RMG-I): > 0.1 µM
IC50 (RXF 393): 0.00144 µM
IC50 (SF-268): 0.0162 µM
IC50 (SF-539): 0.00121 µM
IC50 (SH-4): 0.0435 µM
IC50 (SJSA-1): 0.0121 µM
IC50 (SK-MEL-2): 0.0533 µM
IC50 (SK-OV-3): > 0.1 µM
IC50 (A101D): 0.0314 µM
IC50 (A2058): 0.00122 µM
IC50 (A2780): 0.00461 µM
IC50 (ALL-PO): 0.00521 µM
IC50 (AM-38): 0.0369 µM
IC50 (BE-13): 0.00142 µM
IC50 (BT-474): 0.0942 µM
IC50 (Becker): 0.00113 µM
IC50 (TE-10): 0.0215 µM
IC50 (UACC-257): 0.0905 µM
IC50 (VA-ES-BJ): 0.00327 µM
IC50 (no-11): 0.0388 µM
IC50 (COLO-320-HSR): > 0.1 µM

COc1cc(Nc2c(C#N)cnc3cc(OCCCN4CCN(C)CC4)c(OC)cc23)c(Cl)cc1Cl [BOSUTINIB]
IC50 (COLO-800): > 2 µM
IC50 (COR-L23): > 2 µM
IC50 (CP66-MEL): > 2 µM
IC50 (D-263MG): > 2 µM
IC50 (DU-4475): > 2 µM
IC50 (EM-2): 0.439 µM
IC50 (ES4): 1.21 µM
IC50 (ES7): > 2 µM
IC50 (EW-11): > 2 µM
IC50 (EW-18): > 2 µM
IC50 (GI-ME-N): > 2 µM
IC50 (GOTO): > 2 µM
IC50 (GT3TKB): > 2 µM
IC50 (HL-60): > 2 µM
IC50 (HT): > 2 µM
IC50 (IST-MEL1): > 2 µM
IC50 (IST-MES1): > 2 µM
IC50 (K562): > 2 µM
IC50 (KE-37): 0.495 µM
IC50 (KM-H2): > 2 µM
IC50 (KNS-42): > 2 µM
IC50 (KNS-81-FD): > 2 µM
IC50 (KYSE-410): > 2 µM
IC50 (L-363): > 2 µM
IC50 (LB2241-RCC): 0.537 µM
IC50 (LB373-MEL-D): > 2 µM
IC50 (LS-123): > 2 µM
IC50 (MEG-01): 0.512 µM
IC50 (ML-2): > 2 µM
IC50 (MMAC-SF): > 2 µM
IC50 (MN-60): > 2 µM
IC50 (NB10): > 2 µM
IC50 (NB5): > 2 µM
IC50 (NCI-H1299): > 2 µM
IC50 (NCI-H1650): > 2 µM
IC50 (NCI-H2170): > 2 µM
IC50 (NCI-H446): > 2 µM
IC50 (SNU-5): > 2 µM
IC50 (NKM-1): 1.72 µM
IC50 (NTERA-2-cl-D1): > 2 µM
IC50 (OVCAR-5): > 2 µM
IC50 (P12-Ichikawa): > 2 µM
IC50 (PSN1): > 2 µM
IC50 (RMG-I): > 2 µM
IC50 (RXF 393): > 2 µM
IC50 (SF-268): > 2 µM
IC50 (SF-539): > 2 µM
IC50 (SH-4): > 2 µM
IC50 (SJSA-1): > 2 µM
IC50 (SK-MEL-2): > 2 µM
IC50 (SK-OV-3): > 2 µM
IC50 (A101D): 1.94 µM
IC50 (A2058): > 2 µM
IC50 (A2780): > 2 µM
IC50 (ALL-PO): > 2 µM
IC50 (AM-38): > 2 µM
IC50 (BE-13): 0.486 µM
IC50 (BT-474): > 2 µM
IC50 (Becker): > 2 µM
IC50 (TE-10): > 2 µM
IC50 (UACC-257): > 2 µM
IC50 (VA-ES-BJ): > 2 µM
IC50 (no-11): > 2 µM
IC50 (COLO-320-HSR): > 2 µM

— ChEMBL document CHEMBL1201861, “Genomics of Drug Sensitity in Cancer screening data, Wellcome Trust Sanger Institute”
